Test results: PMC10094617, “Iron(III) Complexes with Non-Steroidal Anti-Inflammatory Drugs: Structure, Antioxidant and Anticholinergic Activity, and Interaction with Biomolecules” (International Journal of Molecular Sciences, 2023)

Legend:
[1] = molecular target: T1, human serum albumin (HSA) (Homo sapiens, UniProt P02768); assay: HSA fluorescence emission quenching (albumin binding); details: for ΔI/Io (%) quenching of HSA fluorescence: HSA 3 μM, λex 295 nm, λem 351 nm; for K albumin-binding constant (HSA): Scatchard equation; for Kq albumin-quenching constant (HSA): Stern–Volmer, τo = 10^−8 s; for relative HSA fluorescence emission intensity (I/Io, %) remaining: λem,max = 351 nm, up to, % of the initial HSA fluorescence
T1 construct: purchased Sigma-Aldrich Co. (St. Louis, MO, USA)
T1 sequence (P02768 25-609): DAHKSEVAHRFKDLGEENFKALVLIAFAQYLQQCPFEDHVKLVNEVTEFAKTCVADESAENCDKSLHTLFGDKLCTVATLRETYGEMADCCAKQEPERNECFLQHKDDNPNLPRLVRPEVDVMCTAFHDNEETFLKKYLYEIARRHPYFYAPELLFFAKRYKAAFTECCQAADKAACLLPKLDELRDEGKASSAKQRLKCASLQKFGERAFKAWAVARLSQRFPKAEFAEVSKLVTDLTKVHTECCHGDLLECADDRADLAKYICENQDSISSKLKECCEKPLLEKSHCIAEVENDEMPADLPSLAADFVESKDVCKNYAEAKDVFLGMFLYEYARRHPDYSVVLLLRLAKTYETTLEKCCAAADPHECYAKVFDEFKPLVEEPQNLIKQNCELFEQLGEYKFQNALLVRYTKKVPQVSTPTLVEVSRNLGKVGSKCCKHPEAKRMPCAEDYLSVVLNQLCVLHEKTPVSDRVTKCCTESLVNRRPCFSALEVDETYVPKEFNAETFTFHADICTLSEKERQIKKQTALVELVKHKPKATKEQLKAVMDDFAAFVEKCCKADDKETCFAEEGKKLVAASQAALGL
Protocol: The albumin-binding study for complexes 1–3 was performed via fluorescence emission quenching experiments using BSA (3 μM) or HSA (3 μM), respectively, in a buffer solution (containing 15-mM trisodium citrate and […] at pH 7.0). The quenching of the emission intensity of tryptophan residues of BSA at 343 nm or HSA at 351 nm was monitored using complexes 1–3 as quenchers with increasing concentrations. The fluorescence emission spectra were recorded in the range of 300–500 nm, with an excitation wavelength of 295 nm. The quantitative studies of the serum albumin fluorescence spectra were performed after correction by subtracting the spectra of the compounds.
The extent of the inner-filter effect can be roughly estimated with the following formula:(2) Icorr=Imeas×10^ε(λexc)cd/2×10^ε(λem)cd/2 where Icorr = corrected intensity, Imeas = the measured intensity, c = the concentration of the quencher, d = the cuvette (1 cm), ε(λexc), and ε(λem) = the ε of the quencher at the excitation and the emission wavelength, respectively, as calculated from the UV-vis spectra of the complexes.
The Stern–Volmer and Scatchard graphs are used in order to study the interaction of a quencher with serum albumins. The Stern–Volmer quenching equation is used:(3) Io/I=1+Kq×τ0×[Q]=1+KSV×[Q] where Io = the initial tryptophan fluorescence intensity of SA, I = the tryptophan fluorescence intensity of SA after the addition of the quencher, Kq = the quenching constants of SA, KSV = the Stern–Volmer constant, τo = the average lifetime of SA without the quencher, and [Q] = the concentration of the quencher. The value of KSV (M^−1) can be obtained by the slope of the diagram Io/I versus [Q]. Taking τo = 10^−8 s as the fluorescence lifetime of tryptophan in SA, the value of Kq (M^−1s^−1) is calculated from the equation:(4) KSV=Kq×τo and from the Scatchard equation [130]:(5) ΔI/Io/[Q]=n×K−K×ΔI/Io where n is the number of binding sites per albumin and K is the SA-binding constant, K (in M^−1) is calculated from the slope in plots (ΔI/Io)/[Q] versus (ΔI/Io), and n is given by the ratio of y-intercept to the slope.

EB–DNA adduct (CT DNA) = assay: EB-displacement from EB–DNA adduct (fluorescence emission); assay type: binding, calf; details: for KSV Stern–Volmer constant (EB–DNA): EB–DNA fluorescence; for relative EB–DNA fluorescence intensity (I/Io, %) remaining: λem = 592 nm, up to, % of the initial EB–DNA fluorescence; for Kq quenching constant of the EB–DNA fluorescence: τo = 23 ns
Protocol: EB-displacement studies: The competition of complexes 1–3 with EB was investigated by fluorescence emission spectroscopy in order to examine whether the complexes can displace EB from its DNA–EB conjugate. The DNA–EB conjugate was prepared by adding 20-μM EB and 26-μM CT DNA in the buffer solution (150-mM NaCl and 15-mM trisodium citrate at pH 7.0). The possible intercalating effect of the complexes was studied by the addition of a certain amount of a solution of the compound into a solution of the DNA–EB conjugate. The influence of each compound to the DNA–EB complex solution was obtained by recording the changes in the fluorescence emission spectra with the excitation wavelength (λex) at 540 nm.
The Stern–Volmer constant KSV is used to evaluate the quenching efficiency for each compound according to the Stern–Volmer equation (Equation (3)), where Io and I are the emission intensities in the absence and the presence of the quencher, respectively, and [Q] is the concentration of the quencher (i.e., complexes 1–3). The value of KSV is obtained from the Stern–Volmer plots by using the slope of the diagram Io/I versus [Q]. Taking τo = 23 ns as the fluorescence lifetime of the EB–DNA system, the EB–DNA quenching constants (Kq, in M^−1s^−1) of the compounds can be determined according to Equation (4).

[2] = molecular target: T2, equine serum butyrylcholinesterase (eqBuChE) (Equus caballus, UniProt P81908); assay: Inhibition of butyrylcholinesterase (modified Ellman's method); assay type: biochemical; details: for BuChE (I%) inhibition rate: 10^−3 M of the compound, pH 7.4, 37 °C; for SI (selectivity index = IBuChE/IAChE): ratio of inhibition rates at 10^−3 M
T2 construct: purchased J&K Scientific Co. (Beijing, China); host or cells: equine serum (by the product's name)
T2 sequence (P81908 whole entry): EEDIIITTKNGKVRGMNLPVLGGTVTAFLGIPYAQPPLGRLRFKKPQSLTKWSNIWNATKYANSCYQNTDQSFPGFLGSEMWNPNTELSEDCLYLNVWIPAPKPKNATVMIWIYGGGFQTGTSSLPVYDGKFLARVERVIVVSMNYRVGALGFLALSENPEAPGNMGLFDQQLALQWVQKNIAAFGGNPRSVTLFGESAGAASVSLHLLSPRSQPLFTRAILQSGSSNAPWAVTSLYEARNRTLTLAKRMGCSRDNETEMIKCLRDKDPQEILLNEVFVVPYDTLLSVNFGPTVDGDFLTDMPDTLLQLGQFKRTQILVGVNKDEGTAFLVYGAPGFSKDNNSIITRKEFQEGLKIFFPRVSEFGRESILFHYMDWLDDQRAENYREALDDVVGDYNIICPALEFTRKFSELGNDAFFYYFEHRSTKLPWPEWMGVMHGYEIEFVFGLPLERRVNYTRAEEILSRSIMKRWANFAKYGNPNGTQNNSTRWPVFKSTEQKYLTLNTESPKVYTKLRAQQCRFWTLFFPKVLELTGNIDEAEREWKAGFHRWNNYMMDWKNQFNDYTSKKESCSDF
Protocol: (§1) In the study of cholinesterase inhibitors, the inhibitory effect of the compounds (the NSAIDs and their complexes 1–3) against AChE and BuChE was examined using a modified methodology based on Ellman’s method.
(§2) The ability of the compounds to inhibit AChE and BuChE was evaluated using UV-vis spectroscopy. All the assays were carried out in a 0.1M NaH2PO4/Na2HPO4 buffer at a pH = 7.4. Enzyme solutions were prepared with 2.0 U/mL for AChE and 3.0 U/mL for BuChE. A reaction mixture containing 20 μL of phosphate buffer, 100 μL of DTNB (1-mM), and 40 μL of the enzyme (AChE and BuChE) was incubated with 20 μL of the compounds at various concentrations at 37 °C for 15 min. The reaction was started by the addition of the substrate (20-μL) of ATCI or BTCI solution (1-mM), respectively, and incubation for additional 3 min.
(§3) The enzyme activity was determined by measuring the increase in absorbance at 2-min intervals at 412 nm at 37 °C (ε = 14,150 M^−1cm^−1).
The rate of inhibition of each enzyme by the compounds was calculated according to the following expression:(1) I%=(1−VB/VA)×100 where VB and VA indicate the absorbance measured for ChEs in the presence and absence of inhibitors, respectively. […] Neostigmine methyl sulfate was used as the appropriate standard.

[3] = molecular target: T3, electric eel acetylcholinesterase (eeAChE) (Electrophorus electricus, UniProt O42275); assay: Inhibition of acetylcholinesterase (modified Ellman's method); assay type: biochemical; details: 10^−3 M of the compound; pH 7.4, 37 °C
T3 construct: purchased J&K Scientific Co. (Beijing, China)
T3 sequence (O42275 24-633): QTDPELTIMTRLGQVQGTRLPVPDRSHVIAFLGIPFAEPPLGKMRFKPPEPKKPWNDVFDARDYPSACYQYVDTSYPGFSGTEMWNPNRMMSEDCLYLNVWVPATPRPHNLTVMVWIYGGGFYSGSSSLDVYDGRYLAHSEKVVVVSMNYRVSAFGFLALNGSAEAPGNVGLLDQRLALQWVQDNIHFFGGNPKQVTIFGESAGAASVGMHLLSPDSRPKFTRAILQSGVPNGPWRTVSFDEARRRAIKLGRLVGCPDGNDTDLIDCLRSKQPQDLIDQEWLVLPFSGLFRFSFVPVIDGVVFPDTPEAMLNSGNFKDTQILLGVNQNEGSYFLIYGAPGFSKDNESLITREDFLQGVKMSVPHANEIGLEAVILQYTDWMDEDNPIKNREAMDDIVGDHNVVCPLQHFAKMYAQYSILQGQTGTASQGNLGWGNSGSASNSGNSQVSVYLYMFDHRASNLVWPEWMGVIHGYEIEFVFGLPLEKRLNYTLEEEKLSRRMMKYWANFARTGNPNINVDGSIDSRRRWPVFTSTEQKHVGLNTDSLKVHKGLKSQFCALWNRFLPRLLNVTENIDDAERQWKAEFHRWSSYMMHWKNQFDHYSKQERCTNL
Protocol: as §1, §2, §3
The rate of inhibition of each enzyme by the compounds was calculated according to the following expression:(1) I%=(1−VB/VA)×100 where VB and VA indicate the absorbance measured for ChEs in the presence and absence of inhibitors, respectively. The results are expressed as the average of three repetitions of the tests performed and the standard deviation was less than 3% of the mean. The selectivity index (SI), defined as IC50 BuChE/IC50 AChE, was also calculated. Neostigmine methyl sulfate was used as the appropriate standard.

Substance	ΔI/Io (%) quenching of HSA fluorescence [1]	K albumin-binding constant (HSA) [1]	Kq albumin-quenching constant (HSA) [1]	relative HSA fluorescence emission intensity (I/Io, %) remaining [1]	KSV Stern–Volmer constant (EB–DNA) (EB–DNA adduct (CT DNA))	ΔI/Io (%) EB–DNA fluorescence quenching (EB–DNA adduct (CT DNA); [EB] = 20 μM, [DNA] = 26 μM, λex 540 nm, λem 592 nm)	relative EB–DNA fluorescence intensity (I/Io, %) remaining (EB–DNA adduct (CT DNA))	Kq quenching constant of the EB–DNA fluorescence (EB–DNA adduct (CT DNA))	BuChE (I%) inhibition rate [2]	SI (selectivity index = IBuChE/IAChE) [2]	AChE (I%) inhibition rate [3]
[Fe3O(dicl)6(MeOH)3][FeCl4]·Hdicl·1.5MeOH∙H2O [Complex 3]	96.5%	2.42 (±0.17) × 10^5 M^−1	5.22 (±0.35) × 10^13 M^−1s^−1	3.5%	1.53 (±0.51) × 10^6 M^−1	74.3%	25.7%	6.66 (±0.23) × 10^13 M^−1s^−1	76.65 ± 1.95%	21.59	3.55 ± 1.26%
[Fe3O(dicl)6(py)3]Cl∙py [Complex 2]	99.4%	3.87 (±0.42) × 10^5 M^−1	6.09 (±0.30) × 10^13 M^−1s^−1	0.6%	6.15 (±0.29) × 10^5 M^−1		41.8%	2.68 (±0.56) × 10^13 M^−1s^−1	74.36 ± 1.40%	20.89	3.56 ± 0.11%
